According to patent US20230382924A1, “MODULATORS OF CYSTIC FIBROSIS TRANSMEMBRANE CONDUCTANCE REGULATOR” (VERTEX PHARMACEUTICALS INCORPORATED, priority 2020, published 2023):

What was measured:
CFTR [1] = biological target: T1, CFTR (Homo sapiens, UniProt P13569); experiment: Membrane Potential Dye, Enteroid Assay A; format: cell-based; conditions: for EC50: read-out: Ent. A EC50
Summary of the method: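 Signal is reported as % Activity relative to a triple CFTR modulator control (3 μM + 3 μM + 300 nM acute). Read-out: membrane potential fluorescence (20 μM methyl oxonol) monitored for 15 min after chloride-free stimulation. Dye loading took 25 min at room temperature in Bath 1 buffer containing CaCC blockers.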

CFTR [2] = biological target: T1, CFTR; experiment: Membrane Potential Dye, Enteroid Assay B; format: cell-based; conditions: for EC50: read-out: Ent. B EC50
Method: Base medium (ADF+++) consisted of Advanced DMEM/Ham's F12, 2 mM Glutamax, 10 mM HEPES, […] penicillin/streptomycin.
Bath 1 Buffer consisted of 1 mM MgCl2, 160 mM NaCl, 4.5 mM KCl, 10 mM HEPES, 10 mM Glucose, 2 mM CaCl2).
Chloride Free Buffer consisted of 1 mM Magnesium Gluconate, 2 mM Calcium Gluconate, 4.5 mM Potassium Gluconate, 160 mM Sodium Gluconate, 10 mM HEPES, 10 mM Glucose.
Bath 1 Dye Solution consisted of Bath 1 Buffer, 0.04% Pluronic F127, 20 μM Methyl Oxonol, 30 μM CaCCinh-A01, 30 μM Chicago Sky Blue.
Chloride Free Dye Solution consisted of Chloride Free Buffer, 0.04% Pluronic F127, 20 μM Methyl Oxonol, 30 μM CaCCinh-A01, 30 μM Chicago Sky Blue.
3. Enteroid Cell Harvesting and Seeding
Cells were recovered in cell recovery solution, collected by centrifugation at 650 rpm for 5 min at 4° C., resuspended in TryPLE and incubated for 5 min at 37° C. Cells were then collected by centrifugation at 650 rpm for 5 min at 4° C. and resuspended in IEMM containing 10 μM ROCK inhibitor (RI).
5. Membrane Potential Dye, Enteroid Assay B
Briefly, cells were washed 5 times in Bath 1 Buffer. Bath 1 Dye Solution was added and the cells were incubated for 25 min at room temperature. Following dye incubation, cells were washed 3 times in Chloride Free Dye Solution. Chloride transport was initiated by addition of Chloride Free Dye Stimulation Solution and the fluorescence signal was read for 15 min.

T1 sequence (P13569 with tags, fused parts or gaps DEL508-508): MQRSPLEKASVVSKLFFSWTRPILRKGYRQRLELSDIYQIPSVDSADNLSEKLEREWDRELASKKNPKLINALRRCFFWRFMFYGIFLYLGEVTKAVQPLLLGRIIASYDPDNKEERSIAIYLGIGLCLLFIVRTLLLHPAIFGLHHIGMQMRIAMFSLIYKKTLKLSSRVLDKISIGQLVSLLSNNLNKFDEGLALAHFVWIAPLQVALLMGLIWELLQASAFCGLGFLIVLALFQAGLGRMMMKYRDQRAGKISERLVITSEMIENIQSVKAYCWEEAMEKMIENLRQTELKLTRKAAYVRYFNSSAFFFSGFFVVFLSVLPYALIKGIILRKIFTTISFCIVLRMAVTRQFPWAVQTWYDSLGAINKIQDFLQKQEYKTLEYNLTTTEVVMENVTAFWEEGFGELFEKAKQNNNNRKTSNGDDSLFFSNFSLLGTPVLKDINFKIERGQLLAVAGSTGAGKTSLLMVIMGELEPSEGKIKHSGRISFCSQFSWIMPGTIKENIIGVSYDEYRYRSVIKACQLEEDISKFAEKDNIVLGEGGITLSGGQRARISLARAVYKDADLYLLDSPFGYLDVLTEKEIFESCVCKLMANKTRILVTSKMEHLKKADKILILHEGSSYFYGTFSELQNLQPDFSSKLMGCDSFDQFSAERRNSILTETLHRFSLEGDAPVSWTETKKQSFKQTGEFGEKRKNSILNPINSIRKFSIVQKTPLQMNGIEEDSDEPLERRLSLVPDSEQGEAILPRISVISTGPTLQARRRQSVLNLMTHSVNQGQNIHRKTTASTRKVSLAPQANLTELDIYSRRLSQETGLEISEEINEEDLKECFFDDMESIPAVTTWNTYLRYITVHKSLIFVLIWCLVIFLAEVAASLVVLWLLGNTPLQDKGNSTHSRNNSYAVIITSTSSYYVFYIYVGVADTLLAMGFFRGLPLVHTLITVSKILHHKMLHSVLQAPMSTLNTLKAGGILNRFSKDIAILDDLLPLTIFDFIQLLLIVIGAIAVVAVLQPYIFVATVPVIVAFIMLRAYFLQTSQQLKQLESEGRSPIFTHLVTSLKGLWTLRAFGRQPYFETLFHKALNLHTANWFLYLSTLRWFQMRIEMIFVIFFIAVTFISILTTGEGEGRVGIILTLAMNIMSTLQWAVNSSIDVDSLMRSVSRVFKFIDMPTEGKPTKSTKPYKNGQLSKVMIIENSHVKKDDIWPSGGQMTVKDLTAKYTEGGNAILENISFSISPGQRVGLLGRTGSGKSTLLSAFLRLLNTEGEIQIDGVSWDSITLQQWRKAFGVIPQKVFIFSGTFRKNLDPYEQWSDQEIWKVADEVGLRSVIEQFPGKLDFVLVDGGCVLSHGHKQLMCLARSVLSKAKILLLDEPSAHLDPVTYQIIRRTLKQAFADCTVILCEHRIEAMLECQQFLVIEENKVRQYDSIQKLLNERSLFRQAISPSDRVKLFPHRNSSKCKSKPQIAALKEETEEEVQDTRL

Row | Ent. B Max Activity (CFTR [2]; Table 9) | EC50 (CFTR [2]; Table 9) | SMILES | also measured
1 | ++ (++ is 30-60%) | < 1000 nM | Cc1cccc(C)c1-c1cc2nc(n1)NS(=O)(=O)c1cccc(c1)C(=O)NCC(c1ccc(C34CC(C3)C4)cc1)O2 (stereo not shown) [Compound 396] | Ent. A Max Activity (CFTR [1]; Table 9): +++ (+++ is >60%); EC50 (CFTR [1]; Table 9): < 1000 nM
2 |  |  | Cc1cccc(C)c1-c1cc2nc(n1)NS(=O)(=O)c1cccc(c1)C(=O)NCC(c1ccc(C3(C(F)(F)F)CC3)cc1)O2 (single isomer, unassigned) [Compound 11, 6-(2,6-Dimethylphenyl)-2,2-dioxo-10-[4-[1-(trifluoromethyl)cyclopropyl]phenyl]-9-oxa-2λ^6-thia-3,5,12,19-tetrazatricyclo[12.3.1.14,8]nonadeca-1(18),4(19),5,7,14,16-hexaen-13-one] | Ent. A Max Activity (CFTR [1]; Table 8): +++ (+++ is >60%); EC50 (CFTR [1]; Table 8): < 1000 nM; Ent. B Max Activity (CFTR [2]; Table 8): +++ (+++ is >60%); EC50 (CFTR [2]; Table 8): < 1000 nM
3 | +++ (+++ is >60%) | < 1000 nM | Cc1cccc(C)c1-c1cc2nc(n1)NS(=O)(=O)c1cccc(c1)C(=O)N[C@@H](C(CC(C)C)c1ccccc1)CO2 (stereo in doubt) [Compound 183] | Ent. A Max Activity (CFTR [1]; Table 9): +++ (+++ is >60%); EC50 (CFTR [1]; Table 9): < 1000 nM
4 | ++ (++ is 30-60%) | < 1000 nM | Cc1cccc(C)c1-c1cc2nc(n1)NS(=O)(=O)c1cccc(c1)C(=O)NC[C@H](c1ccc(/C=C/C(C)(C)C)cc1)O2 (stereo in doubt) [Compound 150] | Ent. A Max Activity (CFTR [1]; Table 9): ++ (++ is 30-60%); EC50 (CFTR [1]; Table 9): < 1000 nM
5 | ++ (++ is 30-60%) | < 1000 nM | Cc1cccc(C)c1-c1cc2nc(n1)NS(=O)(=O)c1cccc(c1)C(=O)N[C@@H]1CN(Cc3ccc(C(F)(F)F)cc3)C[C@H]1O2 [Compound 379] | Ent. A Max Activity (CFTR [1]; Table 9): +++ (+++ is >60%); EC50 (CFTR [1]; Table 9): < 1000 nM
6 | +++ (+++ is >60%) | < 1000 nM | Cc1cccc(C)c1-c1cc2nc(n1)NS(=O)(=O)c1cccc(c1)C(=O)NCC(CC(C)C)(CC(C)C)CO2 [Compound 496] | Ent. A Max Activity (CFTR [1]; Table 9): +++ (+++ is >60%); EC50 (CFTR [1]; Table 9): < 1000 nM
7 |  |  | Cc1cccc(C)c1-c1cc2nc(n1)NS(=O)(=O)c1cccc(c1)C(=O)N[C@H](C)CO2 [Compound 95, (11R)-6-(2,6-Dimethylphenyl)-11-methyl-9-oxa-2λ^6-thia-3,5,12,19-tetraazatricyclo[12.3.1.14,8]nonadeca-1(17),4,6,8(19),14(18),15-hexaene-2,2,13-trione] | Ent. A Max Activity (CFTR [1]; Enteroid Assay A): ++ (++ is 30-60%); Ent. B Max Activity (CFTR [2]; Enteroid Assay B): ++ (++ is 30-60%); EC50 (CFTR [2]; Enteroid Assay B): 3000 to 30000 nM
8 | +++ (+++ is >60%) | < 1000 nM | Cc1cccc(/C=C/C2CC2)c1-c1cc2nc(n1)NS(=O)(=O)c1cccc(c1)C(=O)N[C@H](CC(C)C)CO2 [Compound 53, (11R)-6-[2-[(E)-2-Cyclopropylvinyl]-6-methyl-phenyl]-11-isobutyl-2,2-dioxo-9-oxa-2λ^6-thia-3,5,12,19-tetrazatricyclo[12.3.1.14,8]nonadeca-1(18),4(19),5,7,14,16-hexaen-13-one] | 
9 | +++ (+++ is >60%) | < 1000 nM | Cc1cccc(CCC2CC2)c1-c1cc2nc(n1)NS(=O)(=O)c1cccc(c1)C(=O)N[C@H](CC(C)C)CO2 [Compound 391] | 
10 | ++ (++ is 30-60%) | 1000 to 3000 nM | Cc1cccc(C)c1-c1cc2nc(n1)NS(=O)(=O)c1cc(nn1C)C(=O)N[C@H](CC(C)(C)C)CO2 [Compound 77, (10R)-15-(2,6-Dimethylphenyl)-10-(2,2-dimethylpropyl)-5-methyl-3,3-dioxo-12-oxa-3λ^6-thia-2,5,6,9,16,17-hexazatricyclo[11.3.1.14,7]octadeca-1(17),4(18),6,13,15-pentaen-8-one] | 
11 | ++ (++ is 30-60%) | 3000 to 30000 nM | Cc1cccc(C)c1-c1cc2nc(n1)NS(=O)(=O)c1cccc(c1)C(=O)N[C@H](CC(C)(C)O)CO2 [Compound 65] | 
12 | +++ (+++ is >60%) | < 1000 nM | O=C1N[C@@H]2CCCCC/C=C/c3ccccc3-c3cc(nc(n3)NS(=O)(=O)c3cccc1c3)OC2 [Compound 218] | 
13 | ++ (++ is 30-60%) | < 1000 nM | C=CCCCCCC[C@@H]1COc2cc(-c3c(C)cccc3C=C)nc(n2)NS(=O)(=O)c2cccc(c2)C(=O)N1 [Compound 215] | 
14 | +++ (+++ is >60%) | < 1000 nM | O=C1N[C@@H]2CCCCCC/C=C/c3ccccc3-c3cc(nc(n3)NS(=O)(=O)c3cccc1c3)OC2 [Compound 36, (10E,18R)-30-oxa-26λ^6-thia-19,27,29,32-tetraazapentacyclo[16.11.2.13,28.121,25.04,9]tritriaconta-1,3(32),4(9),5,7,10,21(33),22,24,28-decaene-20,26,26-trione] | 
15 | ++ (++ is 30-60%) | 3000 to 30000 nM | Cc1cccc(O)c1-c1cc2nc(n1)NS(=O)(=O)c1cccc(c1)C(=O)N[C@H](CC(C)C)CO2 [Compound 163] | 
16 | +++ (+++ is >60%) | < 1000 nM | Cc1cccc(CCC(C)C)c1-c1cc2nc(n1)NS(=O)(=O)c1cccc(c1)C(=O)N[C@H](CC(C)C)CO2 [Compound 389] | 

Row | Ent. B Max Activity (CFTR [2]; Table 9) | EC50 (CFTR [2]; Table 9) | SMILES | also measured
17 | +++ (+++ is >60%) | < 1000 nM | Cc1cccc(C)c1-c1cc2nc(n1)NS(=O)(=O)c1cc(n(C)n1)C(=O)N[C@H](CC(C)(C)C)CO2 [Compound 358] | 
18 | ++ (++ is 30-60%) | < 1000 nM | Cc1cccc(C)c1-c1cc2nc(n1)NS(=O)(=O)c1cccc(c1)C(=O)NC[C@H](CC(C)C)CO2 (stereo in doubt) [Compound 368] | 
19 | + (+ is <30%) |  | CC(C)C[C@@H]1COc2cc(C3(C)CC3)nc(n2)NS(=O)(=O)c2cccc(c2)C(=O)N1 [Compound 164] | 
20 | + (+ is <30%) | 1000 to 3000 nM | Cc1cccc(C)c1-c1cc2nc(n1)NS(=O)(=O)c1cccc(c1)C(=O)N[C@H](C)[C@H](C)O2 [Compound 483] | 
21 | ++ (++ is 30-60%) | < 1000 nM | Cc1cccc(C=C2CCCCC2)c1-c1cc2nc(n1)NS(=O)(=O)c1cccc(c1)C(=O)N[C@H](CC(C)C)CO2 [Compound 388] | 
22 | +++ (+++ is >60%) | < 1000 nM | C=CCCCCC[C@@H]1COc2cc(-c3ccccc3C=C)nc(n2)NS(=O)(=O)c2cccc(c2)C(=O)N1 [Compound 220] | 
23 | +++ (+++ is >60%) | < 1000 nM | C=CCCCC[C@@H]1COc2cc(-c3ccccc3C=C)nc(n2)NS(=O)(=O)c2cccc(c2)C(=O)N1 [Compound 221] | 
24 | + (+ is <30%) | 3000 to 30000 nM | Cc1cccc(C)c1-c1cc2nc(n1)NS(=O)(=O)c1cccc(c1)C(=O)N[C@H](CCC(C)(C)O)CO2 [Compound 67, (11R)-6-(2,6-Dimethylphenyl)-11-(3-hydroxy-3-methylbutyl)-2,2-dioxo-9-oxa-2λ^6-thia-3,5,12,19-tetrazatricyclo[12.3.1.14,8]nonadeca-1(18),4(19),5,7,14,16-hexaen-13-one] | 
25 | +++ (+++ is >60%) | < 1000 nM | O=C1N[C@@H]2CCCC/C=C/c3ccccc3-c3cc(nc(n3)NS(=O)(=O)c3cccc1c3)OC2 [Compound 219] | 
26 | +++ (+++ is >60%) | < 1000 nM | O=C1N[C@@H]2CCCCCCCc3ccccc3-c3cc(nc(n3)NS(=O)(=O)c3cccc1c3)OC2 [Compound 217] | 
27 | +++ (+++ is >60%) | 1000 to 3000 nM | Cc1cccc(C)c1-c1cc2nc(n1)NS(=O)(=O)c1cccc(c1)C(=O)NCC(c1ccc(CCCO)cc1)O2 (stereo not shown) [Compound 122] | 
28 | +++ (+++ is >60%) | < 1000 nM | O=C1N[C@@H]2CCCCCCc3ccccc3-c3cc(nc(n3)NS(=O)(=O)c3cccc1c3)OC2 [Compound 216] | 
29 | +++ (+++ is >60%) | < 1000 nM | Cc1cccc(CC2CCCCC2)c1-c1cc2nc(n1)NS(=O)(=O)c1cccc(c1)C(=O)N[C@H](CC(C)C)CO2 [Compound 387] | 
30 | +++ (+++ is >60%) | < 1000 nM | Cc1cccc(C)c1-c1cc2nc(n1)NS(=O)(=O)c1cccc(c1)C(=O)NC[C@@H](CC(C)C)CO2 (stereo in doubt) [Compound 367] | 
31 | ++ (++ is 30-60%) | 1000 to 3000 nM | Cc1cccc(C)c1-c1cc2nc(n1)NS(=O)(=O)c1cc(no1)C(=O)N[C@H](CC(C)(C)C)CO2 [Compound 357] | 

Row | SMILES | Ent. B Max Activity (CFTR [2]; Table 9) | EC50 (CFTR [2]; Table 9) | also measured
32 | Cc1cccc(C)c1-c1cc2nc(n1)NS(=O)(=O)c1cccc(c1)C(=O)NC[C@H](c1ccc(C[Si](C)(C)C)cc1)O2 (stereo in doubt) [Compound 125] |  | < 1000 nM | 
33 | Cc1cccc(C)c1-c1cc2nc(n1)NS(=O)(=O)c1cccc(c1)C(=O)NC[C@H](c1ccc(CC[Si](C)(C)C)cc1)O2 (stereo in doubt) [Compound 123] |  | < 1000 nM | 
